For 39 compounds, IC50 results are on record in patent US20230026611A1, “ARYL HETEROCYCLIC COMPOUNDS AS Kv1.3 POTASSIUM SHAKER CHANNEL BLOCKERS” (D. E. Shaw Research, LLC, priority 2019, published 2023).

Assay [1] deals with T1, Kv1.3 potassium channel (Homo sapiens, UniProt P22001).
T1 construct: expressed in transfected cells
The assay can be described thus: Kv1.3 potassium channel blocker activity, automated whole-cell patch clamp (Patchliner) in CHO-K1 cells stably expressing Kv1.3. Type of assay: cell-based. The conditions noted are these: CHO-K1 cells stably expressing Kv1.3; patch clamp, current inhibition; read-out: Kv1.3 IC50. How it is done:
Example 82. Evaluation of Kv1.3 potassium channel blocker activities
This assay is used to evaluate the disclosed compounds' activities as Kv1.3 potassium channel blockers.
CHO-K1 cells stably expressing Kv1.3 were grown in DMEM containing 10% heat-inactivated FBS, 1 mM sodium pyruvate, 2 mM L-glutamine, and G418 (500 μg/ml).
All compounds were dissolved in DMSO at 30 mM.
The currents were evoked by applying 100 ms depolarizing pulses from −90 mV (holding potential) to +40 mV were applied with 0.1 Hz frequency. […] 10-second breaks were used between pulse trains (see Table A below).
Data were sampled at 10 kHz without filtering. Passive leak currents were subtracted online using a P/4 procedure (HEKA Elektronik Dr. Schulze GmbH). […] Total compound incubation time before the next pulse train was not longer than 10 seconds. Peak current inhibition was observed during compound equilibration.

For assay [2], the target named is hERG channel (Homo sapiens, UniProt Q12809). The assay can be described thus: hERG electrophysiology, automated whole-cell patch clamp (Patchliner) in CHO-K1 cells stably expressing hERG.
Method: Evaluation of hERG Activities
This assay is used to evaluate the disclosed compounds's inhibition activities against the hERG channel.
CHO-K1 cells stably expressing hERG were grown in Ham's F-12 Medium with glutamine containing 10% heat-inactivated FBS, 1% penicillin/streptomycin, hygromycin (100 μg/ml) and G418 (100 μg/ml). Cells were grown in culture flasks at 37° C. in a 5% CO2-humidified incubator.
The cells were bathed in an extracellular solution containing 140 mM NaCl, 4 mM KCl, 2 mM CaCl2), 1 mM MgCl2, 5 mM Glucose, 10 mM HEPES; pH adjusted to 7.4 with NaOH; 295-305 mOsm. The internal solution contained 50 mM KCl, 10 mM NaCl, 60 mM KF, 20 mM EGTA, 10 mM HEPES; pH adjusted to 7.2 with KOH; 285 mOsm. All compounds were dissolved in DMSO at 30 mM. Compound stock solutions were freshly diluted with external solution to concentrations of 30 nM, 100 nM, 300 nM, 1 μM, 3 μM, 10 μM, 30 μM and 100 μM. The highest content of DMSO (0.3%) was present in 100 μM.
The voltage protocol (see Table B) was designed to simulate voltage changes during a cardiac action potential with a 300 ms depolarization to +20 mV (analogous to the plateau phase of the cardiac action potential), a repolarization for 300 ms to −50 mV (inducing a tail current) and a final step to the holding potential of −80 mV. The pulse frequency was 0.3 Hz. Control (compound-free) and compound pulse trains for each compound concentration applied contained 70 pulses.
Whole-cell current recordings and compound application were enabled by means of an automated patch clamp platform Patchliner (Nanion). EPC 10 patch clamp amplifier (HEKA) along with Patchmaster software (HEKA Elektronik Dr. Schulze GmbH) was used for data acquisition. Data were sampled at 10 kHz without filtering. Increasing compound concentrations were applied consecutively to the same cell without washouts in between.
AUC and PEAK values were obtained with Patchmaster (HEKA Elektronik Dr. Schulze GmbH). To determine IC50 the last single pulse in the pulse train corresponding to a given compound concentration was used. Obtained AUC and PEAK values in the presence of compound were normalized to control values in the absence of compound. Using Origin (OridinLab), IC50 was derived from data fit to Hill equation: Icompound/control=(100−A)/(1+([compound]/IC50)nH)+A, where IC50 is the concentration at which current inhibition is half-maximal, [compound] is the applied compound concentration, A is the fraction of current that is not blocked and nH is the Hill coefficient.

pIC50: −log10 of the molar value.

T1 sequence (P22001 whole entry): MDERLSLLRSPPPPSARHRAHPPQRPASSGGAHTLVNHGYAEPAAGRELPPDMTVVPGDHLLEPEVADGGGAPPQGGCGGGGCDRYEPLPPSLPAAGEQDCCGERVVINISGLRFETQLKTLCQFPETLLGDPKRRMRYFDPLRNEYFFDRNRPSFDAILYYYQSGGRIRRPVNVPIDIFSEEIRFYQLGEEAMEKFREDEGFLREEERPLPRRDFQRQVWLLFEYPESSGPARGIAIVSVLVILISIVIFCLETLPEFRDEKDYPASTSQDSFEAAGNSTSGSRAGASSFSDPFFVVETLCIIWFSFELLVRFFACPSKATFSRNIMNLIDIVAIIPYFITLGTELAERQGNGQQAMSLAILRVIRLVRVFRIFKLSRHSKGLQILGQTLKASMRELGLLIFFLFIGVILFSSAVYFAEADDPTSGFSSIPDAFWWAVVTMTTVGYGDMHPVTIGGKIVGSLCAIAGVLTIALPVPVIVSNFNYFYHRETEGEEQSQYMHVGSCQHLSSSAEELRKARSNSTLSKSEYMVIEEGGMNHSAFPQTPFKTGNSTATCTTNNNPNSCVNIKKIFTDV
hERG channel, sequence (Q12809 whole entry): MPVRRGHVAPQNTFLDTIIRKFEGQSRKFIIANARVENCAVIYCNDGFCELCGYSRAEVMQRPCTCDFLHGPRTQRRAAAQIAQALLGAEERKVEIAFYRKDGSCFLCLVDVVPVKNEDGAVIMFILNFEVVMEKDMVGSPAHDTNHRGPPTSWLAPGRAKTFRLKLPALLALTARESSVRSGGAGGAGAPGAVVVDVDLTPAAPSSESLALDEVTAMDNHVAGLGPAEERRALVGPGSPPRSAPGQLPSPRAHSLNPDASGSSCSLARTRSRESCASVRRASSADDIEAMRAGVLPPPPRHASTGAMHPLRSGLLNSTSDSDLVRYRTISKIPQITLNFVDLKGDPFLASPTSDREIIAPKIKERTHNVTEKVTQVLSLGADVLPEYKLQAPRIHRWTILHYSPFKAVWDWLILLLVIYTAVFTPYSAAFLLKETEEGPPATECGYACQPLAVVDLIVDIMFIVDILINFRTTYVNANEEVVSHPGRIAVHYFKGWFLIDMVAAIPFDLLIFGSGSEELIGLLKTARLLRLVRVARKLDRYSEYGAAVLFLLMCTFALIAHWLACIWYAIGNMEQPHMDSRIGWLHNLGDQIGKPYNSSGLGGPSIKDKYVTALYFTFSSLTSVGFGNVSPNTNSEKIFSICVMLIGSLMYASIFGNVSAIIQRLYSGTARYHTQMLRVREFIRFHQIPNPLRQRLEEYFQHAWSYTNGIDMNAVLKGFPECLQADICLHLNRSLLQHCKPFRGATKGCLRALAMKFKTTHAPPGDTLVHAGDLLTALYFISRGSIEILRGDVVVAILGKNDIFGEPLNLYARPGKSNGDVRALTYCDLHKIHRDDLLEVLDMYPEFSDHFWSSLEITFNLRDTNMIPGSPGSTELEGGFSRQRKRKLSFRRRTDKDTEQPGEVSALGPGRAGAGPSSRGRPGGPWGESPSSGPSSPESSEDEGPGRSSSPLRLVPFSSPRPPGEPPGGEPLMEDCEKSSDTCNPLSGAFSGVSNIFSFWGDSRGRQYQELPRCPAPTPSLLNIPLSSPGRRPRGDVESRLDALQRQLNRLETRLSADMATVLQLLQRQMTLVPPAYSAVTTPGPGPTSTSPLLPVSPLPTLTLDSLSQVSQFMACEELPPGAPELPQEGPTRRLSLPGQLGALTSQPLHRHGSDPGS

As to `CC1(N)CCN(c2cc(Cl)c(Cl)cc2O)CC1` [Compound 25, 2-(4-amino-4-methylpiperidin-l-yl)-4,5-dichlorophenol], the values for the pIC50 in assay [1] and in assay [2] were more than 6.00 and more than 4.52, respectively.
For `CNC(=O)C[C@@H]1C[C@H](c2c(O)ccc(Cl)c2Cl)CCN1` (single isomer, unassigned) [Compound 14], the pIC50 in assay [1] is more than 6.00; in assay [2], less than 4.52.
The corresponding values for `NC(=O)CC1CC(c2c(O)ccc(Cl)c2Cl)CCN1` [Compound 101, 2-[(2R,4S)-rel-4-(2,3-dichloro-6-hydroxyphenyl)piperidin-2-yl]acetamide] are more than 6.00 and less than 4.52.
For `CNC(=O)C1CC(c2c(O)ccc(Cl)c2Cl)CCN1` (stereo not drawn) [Compound 72, 4-(2,3-dichloro-6-hydroxyphenyl)-N-methylpiperidine-2-carboxamide], the negative logarithm of the IC50 (pIC50) was more than 6.00 in assay [1] and less than 4.52 in assay [2].
For the compound `Nc1nnc(C2CC(c3c(O)ccc(Cl)c3Cl)CCN2)o1` [Compound 99, (2R,4S)-rel-2-(2-(5-amino-1,3,4-oxadiazol-2-yl)piperidin-4-yl)-3,4-dichlorophenol], the negative-log IC50 (pIC50) in assay [1] was more than 6.00; in assay [2], less than 4.52.
The corresponding values for `CNC1CCN(c2cc(Cl)c(Cl)cc2O)CC1` [Compound 24, 4,5-dichloro-2-[4-(methylamino)pip-eridin-1-yl]phenol] are more than 6.00 and more than 4.52.
Taken in the same sequence, the figures for `O=C(CO)N1CCC(c2c(O)cc(Cl)c(Cl)c2Cl)CC1` [Compound 93, 2-hydroxy-1-[4-(2,3,4-trichloro-6-hydroxyphenyl)piperidin-1-yl]ethan-1-one] were more than 6.00 and more than 4.52.
Turning to `CNC(=O)C[C@H]1C[C@@H](c2c(O)ccc(Cl)c2Cl)CCN1` (relative stereo) [Compound 115, 2-[4-(2,3-dichloro-6-hydroxyphenyl)piperidin-2-yl]-N-methylacetamide], the negative logarithm of the IC50 (pIC50) in assay [1] is more than 6.00; in assay [2], less than 4.52.
Taken in the same sequence, the figures for `Cc1cc(O)c(C2CCNCC2)cc1Cl` [Compound 12, 4-chloro-5-methyl-2-(piperidin-4-yl)phenol] were more than 5.00 and more than 4.52.
With `O=C([C@H](O)CO)N1CCC(c2c(O)ccc(Cl)c2Cl)CC1` [Compound 2, (2R)-1-[4-(2,3-dichloro-6-hydroxyphenyl)piperidin-1-yl]-2,3-dihydroxypropan-1-one], the negative logarithm of the IC50 (pIC50) was more than 6.00 in assay [1] and less than 4.52 in assay [2].
Regarding `O=C(C[C@H]1C[C@@H](c2c(O)ccc(Cl)c2Cl)CCN1)N1CCOCC1` (relative stereo) [Compound 113, 2-[4-(2,3-dichloro-6-hydroxyphenyl)piperidin-2-yl]-1-(morpholin-4-yl)ethan-1-one], the negative logarithm of the IC50 (pIC50) in assay [1] is more than 6.00; in assay [2], less than 4.52.
Taken in the same sequence, the figures for `NC(=O)C1CC(c2c(O)cc(Cl)c(Cl)c2Cl)CCN1` (stereo not drawn) [Compound 61, 4-(2,3,4-trichloro-6-hydroxyphenyl)piperidine-2-carboxamide] were more than 6.00 and more than 4.52.
Taken in the same sequence, the figures for `NC(=O)N1CCC(c2c(O)cc(Cl)c(Cl)c2Cl)CC1` [Compound 60, 4-(2,3,4-trichloro-6-hydroxyphenyl)piperidine-1-carboxamide] were more than 6.00 and more than 4.52.
With `NC(=O)[C@H]1C[C@@H](c2c(O)ccc(Cl)c2Cl)CCN1` (single isomer, unassigned) [Compound 70], the negative-log IC50 (pIC50) in assay [1] was more than 6.00; in assay [2] it was less than 4.52.
Taken in the same sequence, the figures for `O=C(C[C@@H]1C[C@H](c2c(O)ccc(Cl)c2Cl)CCN1)N1CCOCC1` (single isomer, unassigned) [Compound 32] were more than 6.00 and less than 4.52.
As to `CC(=O)NC[C@H]1C[C@@H](c2c(O)ccc(Cl)c2Cl)CCN1` (single isomer, unassigned) [Compound 86], the pIC50 is more than 6.00 in assay [1] and less than 4.52 in assay [2].
The corresponding values for `Oc1cc(Cl)c(Cl)cc1C1CCNCC1` [Compound 3, 4,5-dichloro-2-(piperidin-4-yl)phenol] are more than 6.00 and more than 4.52.
Taken in the same sequence, the figures for `Oc1cc(Cl)c(Cl)c(Cl)c1C1CCNCC1` [Compound 44, 3,4,5-trichloro-2-(piperidin-4-yl)phenol] were more than 6.00 and more than 4.52.
On to `NC(=O)NCC1CC(c2c(O)ccc(Cl)c2Cl)CCN1` [Compound 102, (2R,4S)-rel-[4-(2,3-dichloro-6-hydroxyphenyl)piperidin-2-yl]methylurea], for which the pIC50 in assay [1] is more than 6.00; in assay [2], less than 4.52.
As for `NC(=O)[C@@H]1C[C@H](c2c(O)ccc(Cl)c2Cl)CCN1` (single isomer, unassigned) [Compound 73], the pIC50 in assay [1] was more than 6.00; in assay [2], less than 4.52.
Take `NC(=O)[C@H]1CNCC[C@H]1c1cc(Cl)c(Cl)cc1O` (single isomer, unassigned) [Compound 42]: the pIC50 is more than 6.00 in assay [1] and less than 4.52 in assay [2].
Taken in the same sequence, the figures for `O=S(=O)(NCC1CC(c2c(O)ccc(Cl)c2Cl)CCN1)c1ccccc1` [Compound 94, N-(2R,4S)-rel-[[4-(2,3-dichloro-6-hydroxyphenyl)piperidin-2-yl]methyl]benzenesulfonamide] were more than 6.00 and more than 4.52.
The corresponding values for `Oc1cc(Cl)c(Cl)cc1C1CCNC(C2CC2)C1` (stereo not drawn) [Compound 43, 4,5-dichloro-2-(2-cyclopropylpiperidin-4-yl)phenol] are more than 6.00 and more than 4.52.
For `O=C(C[C@H]1CC(c2c(O)ccc(Cl)c2Cl)CCN1)N1CCOCC1` (single isomer, unassigned) [Compound 67], the results for the negative logarithm of the IC50 (pIC50) in assay [1] and in assay [2] were more than 6.00 and less than 4.52, respectively.
`CS(=O)(=O)NC[C@@H]1C[C@H](c2c(O)ccc(Cl)c2Cl)CCN1` (single isomer, unassigned) [Compound 107]: the negative-log IC50 (pIC50) in assay [1] was more than 6.00; in assay [2], less than 4.52.
The corresponding values for `O=C(NC1CNC1)[C@@H]1CN[C@@H](c2c(O)ccc(Cl)c2Cl)C1` (single isomer, unassigned) [Compound 122] are more than 6.00 and less than 4.00.
The corresponding values for `NC(=O)[C@H]1C[C@@H](c2c(O)cc(Cl)c(Cl)c2Cl)CCN1` (single isomer, unassigned) [Compound 65] are more than 6.00 and more than 4.52.
Taken in the same sequence, the figures for `Cn1cc(NC(=O)C[C@H]2C[C@@H](c3c(O)ccc(Cl)c3Cl)CCN2)cn1` (relative stereo) [Compound 114, (2R,4S)-rel-2-[4-(2,3-dichloro-6-hydroxyphenyl)piperidin-2-yl]-N-(1-methyl-1H-pyrazol-4-yl)acetamide] were more than 6.00 and less than 4.52.
Consider `Oc1cc(Cl)c(Cl)cc1C1=CCNCC1` [Compound 9, 4,5-dichloro-2-(1,2,3,6-tetrahydropyridin-4-yl)phenol], for which the pIC50 in assay [1] was more than 6.00; in assay [2], more than 4.52.
The corresponding values for `Oc1cc(Cl)c(Cl)cc1C1CCCNCC1` (stereo not drawn) [Compound 39, 2-(azepan-4-yl)-4,5-dichlorophenol] are more than 6.00 and more than 4.52.
Take `O=C([C@H]1CCNC1)N1CCC(c2c(O)cc(Cl)c(Cl)c2Cl)CC1` [Compound 91, 3,4,5-trichloro-2-[1-[(3S)-pyrrolidine-3-carbonyl]piperidin-4-yl]phenol]: the pIC50 in assay [1] is more than 6.00; in assay [2], more than 4.52.
Taken in the same sequence, the figures for `O=C(C[C@H]1C[C@@H](c2c(O)ccc(Cl)c2Cl)CCN1)NC1CCC1` (relative stereo) [Compound 111, N-cyclobutyl-(2R,4S)-rel-2-[4-(2,3-dichloro-6-hydroxyphenyl)piperidin-2-yl]acetamide] were more than 6.00 and more than 4.52.
Taken in the same sequence, the figures for `Oc1c(C2CCNCC2)cc(Cl)c(Cl)c1Cl` [Compound 54, 2,3,4-trichloro-6-(piperidin-4-yl)phenol] were more than 5.00 and more than 4.52.
As for `Oc1cc(Cl)c(Cl)cc1C1CCNC1` (single isomer, unassigned) [Compound 38, 4,5-dichloro-2-(pyrrolidin-3-yl)phenol], the pIC50 in assay [1] was more than 6.00; in assay [2], more than 4.52.
Taken in the same sequence, the figures for `Oc1cc(Cl)c(Cl)cc1N1CCNCC1` [Compound 5, 4,5-dichloro-2-(piperazin-1-yl)phenol] were more than 5.00 and more than 4.52.
The corresponding values for `NCC1CCN(c2cc(Cl)c(Cl)cc2O)CC1` [Compound 28, 2-[4-(aminomethyl)pip-eridin-1-yl]-4,5-dichlorophenol] are more than 6.00 and more than 4.52.
Taken in the same sequence, the figures for `NCC1CN(c2cc(Cl)c(Cl)cc2O)C1` [Compound 31, 2-(3-(aminomethyl)aze-tidin-1-yl)-4,5-dichlorophenol] were more than 6.00 and more than 4.52.
Regarding `Oc1ccc(Cl)c(Cl)c1C1CCNC(c2cn[nH]c2)C1` (stereo not drawn) [Compound 116, 3,4-dichloro-2-[2-(1H-pyrazol-4-yl)piperidin-4-yl]phenol], the figures for the pIC50 in assay [1] and in assay [2] were more than 6.00 and less than 4.52, respectively.
The corresponding values for `Oc1ccc2ccccc2c1C1CCNCC1` [Compound 18, 1-(piperidin-4-yl)naphthalen-2-ol] are more than 6.00 and more than 4.52.
